These results are taken from PubChem BioAssay (NCI).

“And” between values parts separate entries of the source, which are not always exact repeats. Equal values may be shown once.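 Test compounds were applied to cells in 96-well plates for 48 hours at 5 doses. GI50 is the concentration that inhibits growth by half. TGI is the concentration that stops growth completely.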

Among the test systems are IGROV1 ovarian; HT29 colon; MOLT-4 leukemia; SN12C renal; DU-145 prostate; TK-10 renal; M14 melanoma; SK-MEL-5 melanoma; OVCAR-8 ovarian; NCI-H522 lung.
What all share (assay): DTP human tumour cell line panel, 48 h

For orientation: GI50 means the concentration at which growth is held to half of that of the control. By TGI is commonly meant the concentration giving total growth inhibition. Read a low TGI as more potent growth arrest. With `COc1ccc([C@@H]2[C@@H](Cl)C(=O)N2c2cc(OC)c(OC)c(OC)c2)cc1C`, the GI50 with IGROV1 ovarian is 0.0849 µM; in the test with HT29 colon, 0.0327 µM; with MOLT-4 leukemia, 0.181 µM; in the test with SN12C renal, 0.0999 µM; with DU-145 prostate it was 0.0405 µM; in the test with TK-10 renal it was 10.5 µM. Moreover, the GI50 was 0.0302 µM in the test on M14 melanoma, 0.0553 µM in the test with SK-MEL-5 melanoma, 0.0504 µM in the test on OVCAR-8 ovarian and 0.0224 µM in the test with NCI-H522 lung. In addition, the TGI in the test on IGROV1 ovarian is 72.4 µM; with HT29 colon, 11.9 µM; in the test on MOLT-4 leukemia it was greater than 100 µM; in the test on SN12C renal, 21.9 µM; in the test on DU-145 prostate, 0.236 µM; with TK-10 renal, 79.9 µM. For the same compound, the total growth inhibition concentration (TGI) with M14 melanoma came to 17.5 µM; in the test on SK-MEL-5 melanoma it was 1.34 µM; in the test with OVCAR-8 ovarian, 77.5 µM; with NCI-H522 lung, 0.0717 µM.
As to `O=C(CC1(O)C(=O)Nc2ccc(Cl)cc21)c1ccc(C(=O)NCC2CCC3(CC2)OOC2(CCCCC2)OO3)cc1` (stereo not drawn), the GI50 in the test with IGROV1 ovarian is 0.482 µM; in the test on HT29 colon, 3.19 µM; in the test on MOLT-4 leukemia it was 2.05 µM; in the test with SN12C renal it was 3.45 µM; in the test with DU-145 prostate, 2 µM; in the test on TK-10 renal, 1.78 µM. The GI50 in the test on M14 melanoma is 4.41 µM; with SK-MEL-5 melanoma it was 1.75 µM; in the test on OVCAR-8 ovarian, 2.68 µM; in the test on NCI-H522 lung, 0.292 µM. The concentration for total growth inhibition (TGI) turned out to be 2.89 µM in the test on IGROV1 ovarian; 11.2 µM in the test with HT29 colon; 5.09 µM in the test with MOLT-4 leukemia; 18.4 µM with SN12C renal; 6.49 µM with DU-145 prostate; 3.28 µM with TK-10 renal. Besides, the TGI in the test with M14 melanoma is 24.6 µM; with SK-MEL-5 melanoma it was 3.4 µM; in the test with OVCAR-8 ovarian it was 11.6 µM; with NCI-H522 lung it was 1.37 µM.
Consider `O=C(NOCCO)c1ccc2cncn2c1Nc1ccc(I)cc1F`, for which the GI50 was 0.013 µM and 0.0532 µM with IGROV1 ovarian; 0.00307 µM and < 0.01 µM with HT29 colon; > 10 µM and 35.1 µM in the test with MOLT-4 leukemia; > 10 µM and 19.8 µM in the test on SN12C renal; > 10 µM and 19.9 µM in the test with DU-145 prostate; 0.00874 µM and < 0.0129 µM in the test on TK-10 renal. Besides, the concentration for 50% growth inhibition (GI50) with M14 melanoma was 0.00286 µM and < 0.01 µM; with SK-MEL-5 melanoma it was 3.94 µM; in the test with OVCAR-8 ovarian it was > 10 µM and 19.4 µM; with NCI-H522 lung, > 3.69 µM and 16.9 µM. Further, the TGI in the test on IGROV1 ovarian, in the test with HT29 colon, with MOLT-4 leukemia, in the test with SN12C renal, with DU-145 prostate and with TK-10 renal was greater than 100 µM throughout. For the same compound, the total growth inhibition concentration (TGI) in the test on SK-MEL-5 melanoma, with OVCAR-8 ovarian and with NCI-H522 lung was greater than 100 µM each time.
Turning to `COc1ccc2c(Cl)cc(NC(=S)Nc3ccccc3)nc2c1`, the TGI in the test on IGROV1 ovarian is 54.3 µM; in the test on HT29 colon, 44.4 µM; with MOLT-4 leukemia, 72.2 µM; in the test with SN12C renal it was greater than 100 µM; in the test with DU-145 prostate, greater than 100 µM; with TK-10 renal, greater than 100 µM. Also, the TGI with M14 melanoma was 36.6 µM; in the test on SK-MEL-5 melanoma, greater than 100 µM; in the test with OVCAR-8 ovarian it was 38.4 µM; in the test on NCI-H522 lung, 34.8 µM.
With `COC(=O)C(=O)C(C(=O)C(=O)Nc1cc(C)ccc1C)c1nc2ccccc2[nH]c1=O` (stereo not drawn), the concentration for total growth inhibition (TGI) with IGROV1 ovarian, in the test on HT29 colon, with MOLT-4 leukemia, with SN12C renal, in the test on DU-145 prostate and in the test on TK-10 renal was greater than 100 µM in each case. The TGI with M14 melanoma, in the test with SK-MEL-5 melanoma, in the test with OVCAR-8 ovarian and in the test on NCI-H522 lung was greater than 100 µM throughout.
For the compound `O=C(Nc1c[nH]c(=O)[nH]c1=O)Oc1ccccc1`, the TGI with IGROV1 ovarian, with HT29 colon, with MOLT-4 leukemia, with SN12C renal, with DU-145 prostate and with TK-10 renal was greater than 100 µM in each case. Moreover, the concentration for total growth inhibition (TGI) with M14 melanoma, in the test with SK-MEL-5 melanoma, with OVCAR-8 ovarian and in the test with NCI-H522 lung was greater than 100 µM each time.
With `COc1cc(OC)c(/C=C/S(=O)(=O)Cc2ccc(OC)c(N)n2)c(OC)c1`, the 50% growth inhibitory concentration (GI50) in the test with IGROV1 ovarian was less than 0.0122 µM; with HT29 colon it was less than 0.0174 µM; in the test on MOLT-4 leukemia, less than 0.0214 µM; in the test on SN12C renal, less than 0.0171 µM; with DU-145 prostate, less than 0.01 µM; in the test with TK-10 renal, greater than 100 µM. Besides, the 50% growth inhibitory concentration (GI50) is less than 0.01 µM in the test with M14 melanoma, less than 0.01 µM with SK-MEL-5 melanoma, less than 0.018 µM in the test with OVCAR-8 ovarian and less than 0.01 µM in the test on NCI-H522 lung. In addition, the total growth inhibition concentration (TGI) was greater than 100 µM in the test with IGROV1 ovarian; greater than 54.8 µM in the test with HT29 colon; greater than 100 µM in the test with MOLT-4 leukemia; greater than 100 µM in the test with SN12C renal; greater than 100 µM with DU-145 prostate; greater than 100 µM in the test on TK-10 renal. Besides, the TGI is greater than 100 µM in the test on M14 melanoma, 0.0116 µM in the test with SK-MEL-5 melanoma and greater than 100 µM in the test on OVCAR-8 ovarian.
For the compound `Nc1nc(SCC#CCCl)c2[nH]cnc2n1`, the GI50 in the test with IGROV1 ovarian was 4.58 µM; in the test on HT29 colon, 4.92 µM; with MOLT-4 leukemia, 4.11 µM; in the test with SN12C renal it was 4.75 µM; with DU-145 prostate it was 4.39 µM; in the test on TK-10 renal, 1.87 µM. The GI50 in the test with M14 melanoma is 6.58 µM; in the test on SK-MEL-5 melanoma, 3.11 µM; in the test on OVCAR-8 ovarian it was 11.6 µM; with NCI-H522 lung, 1.47 µM. The TGI is 23 µM in the test with IGROV1 ovarian; 18.1 µM with HT29 colon; 30.2 µM with MOLT-4 leukemia; 18 µM in the test on SN12C renal; 15.9 µM in the test with DU-145 prostate; 11.1 µM in the test on TK-10 renal. The concentration for total growth inhibition (TGI) in the test with M14 melanoma is 20.9 µM; in the test on SK-MEL-5 melanoma it was 12.6 µM; in the test with OVCAR-8 ovarian, 33.1 µM; in the test on NCI-H522 lung, 2.95 µM.
As for `N#Cc1ccc2c(-c3ccnc(NC4CC4)n3)c(-c3ccc(F)cc3)nn2c1`, the GI50 with IGROV1 ovarian, with HT29 colon, in the test on MOLT-4 leukemia, in the test on SN12C renal, in the test on DU-145 prostate and in the test on TK-10 renal was greater than 25 µM throughout. Besides, the GI50 with M14 melanoma, in the test with SK-MEL-5 melanoma, with OVCAR-8 ovarian and in the test with NCI-H522 lung was greater than 25 µM in each case. In addition, the TGI in the test on IGROV1 ovarian, in the test on HT29 colon, in the test on MOLT-4 leukemia, in the test with SN12C renal, in the test with DU-145 prostate and with TK-10 renal was greater than 25 µM throughout. The total growth inhibition concentration (TGI) with M14 melanoma, in the test with SK-MEL-5 melanoma, with OVCAR-8 ovarian and with NCI-H522 lung was greater than 25 µM in each case.
